The text below walks through data of publication PMC9317966, “Structure-function analysis of the AMPK activator SC4 and identification of a potent pan AMPK activator” (Biochemical Journal, 2022).

One experiment deals with α2β2γ1 AMPK. Further details: method as in earlier work. The settings on record: reported for example I-3-54; cited from earlier work.
A further experiment has as its target T1, human GST-AMPK α1β2γ1 (Homo sapiens, UniProt O43741+Q13131).
T1 construct: triply transfected with full-length AMPK α1 or α2 (NH2-terminal GST fusion, pDEST27 vector); full-length AMPK α1 or α2 (NH2-terminal GST fusion, pDEST27 vector), β1 or β2 (COOH-terminal FLAG fusion, pcDNA3.1 vector); FLAG (C); made in house; host or cells: HEK293T/17 cells, transient triple transfection
As to the kind of experiment: Radiolabel SAMS kinase assay, GST-AMPK from HEK293T/17 cells immobilised on glutathione-Sepharose. It counts as biochemical.

For another experiment, the target named is T2, human GST-AMPK α2β1γ1 (Homo sapiens, UniProt P54646+Q9Y478).
T2 construct: triply transfected with full-length AMPK α1 or α2 (NH2-terminal GST fusion, pDEST27 vector); full-length AMPK α1 or α2 (NH2-terminal GST fusion, pDEST27 vector), β1 or β2 (COOH-terminal FLAG fusion, pcDNA3.1 vector); FLAG (C); made in house; host or cells: HEK293T/17 cells, transient triple transfection
The description is as above. It counts as biochemical.

For another experiment, the target named is T3, human GST-AMPK α2β2γ1 (Homo sapiens, UniProt O43741+P54646).
T3 construct: triply transfected with full-length AMPK α1 or α2 (NH2-terminal GST fusion, pDEST27 vector); full-length AMPK α1 or α2 (NH2-terminal GST fusion, pDEST27 vector), β1 or β2 (COOH-terminal FLAG fusion, pcDNA3.1 vector); FLAG (C); made in house; host or cells: HEK293T/17 cells, transient triple transfection
The experiment is described as above. It counts as biochemical.

The target of the next experiment is T4, human GST-AMPK α1β1γ1 (Homo sapiens, UniProt Q13131+Q9Y478).
T4 construct: triply transfected with full-length AMPK α1 or α2 (NH2-terminal GST fusion, pDEST27 vector); full-length AMPK α1 or α2 (NH2-terminal GST fusion, pDEST27 vector), β1 or β2 (COOH-terminal FLAG fusion, pcDNA3.1 vector); FLAG (C); made in house; host or cells: HEK293T/17 cells, transient triple transfection
The description is as above. In kind it is biochemical. An excerpt:
We generated a series of compounds to investigate whether modification of the SC4 2-hydroxybiphenyl LHS fragment affects isoform selectivity, some of which (MSG008-MSG011) are presented in Table 1. We also synthesised compound MSG012 (example I-3-54 [32]), which was reported to activate α2β2γ1 with ∼100-fold greater potency compared with α1β1γ1. MSG012 differs from SC4 by substitution of the 2-hydroxyphenyl LHS fragment with 3-cyclohexen-4-yl-1-carboxylic acid, and 2-methylbenzoic acid RHS fragment with 1-hydroxy-N,N-dimethylcyclohexan-4-yl-1-carboxamide. Our initial screen involved measuring the activity of recombinant human GST-AMPK complexes expressed in HEK293T/17 cells and immobilised on glutathione-Sepharose (Supplementary Figure S1). Enzyme activity was measured by radiolabelling the synthetic SAMS peptide substrate in the absence or presence of 1 µM compound. Consistent with our previous characterisation, SC4 activated α1β1γ1, α2β1γ1 and α2β2γ1 >2.3-fold, and weakly activated α1β2γ1 1.3-fold (Figure 1A). […] The γ isoform had little influence on AMPK activation by MSG011 as most γ2 and γ3 complexes were activated >2.2-fold at 1 µM, with α1β2γ2 being the only exception (1.6-fold activation). […] Accordingly, MSG010, MSG011 and MSG012 can be classified as pan AMPK activators.
Adherent HEK293T/17 cells at ∼50% confluency were triply transfected with full-length AMPK α1 or α2 (NH2-terminal GST fusion, pDEST27 vector), β1 or β2 (COOH-terminal FLAG fusion, pcDNA3.1 vector), and γ1, γ2 or γ3 (NH2-terminal HA fusion, pMT2 vector) in the presence of FuGENE HD transfection reagent (Promega) as per the manufacturers protocol. Cells were harvested 48 hours post-transfection by first gently washing in ice cold phosphate buffered saline (PBS; Sigma–Aldrich), then scraping in ice cold lysis buffer (50 mM TRIS pH 7.5, 150 mM NaCl, 10% (v/v) glycerol, 50 mM NaF, 5 mM sodium pyrophosphate, 1% (v/v) Triton X-100, cOmplete protease inhibitor cocktail). Lysates were clarified by centrifugation (16 000g, 3 min, 4°C), flash frozen in liquid N2 and stored at −80°C until analysis. For radioactive kinase assays, AMPK was immobilised on glutathione Sepharose 4B resin (GE Healthcare) by incubation with lysates for 1.5 h at 4°C. Following centrifugation (1000g, 3 min, 4°C), the resin was washed twice in purification buffer (50 mM HEPES pH 7.4, 150 mM NaCl, 10% (v/v) glycerol, 0.02% (v/v) Tween-20), once in 50 mM HEPES pH 7.4 with 0.02% (v/v) Tween-20, then resuspended to a 50% slurry with 50 mM HEPES pH 7.4 and 10 µl added to the activity assays. For in solution kinase assays, α1β1γ1 AMPK was eluted from glutathione-Sepharose by incubating with purification buffer supplemented with 40 mM reduced glutathione (Sigma–Aldrich).
AMPK activity was determined by phosphorylation of the SAMS peptide (Purar Chemicals, sequence: NH2-HMRSAMSGLHLVKRR-COOH) in a 25 µl reaction volume containing 100 µM SAMS peptide, 5 mM MgCl2, 200 µM ATP, [γ-^32P]-ATP (PerkinElmer) and assay buffer (50 mM HEPES pH 7.4, 1 mM DTT and 0.02% (v/v) Tween-20) and purified AMPK. Phosphotransferase activity was conducted at 30°C for 10 min and reactions were quenched by spotting 15 µl onto phosphocellulose ion-exchange chromatography paper (made in-house), followed by repeated washes in 1% H3PO4 (Merck Millipore). Ultima Gold liquid scintillation fluid (5 ml; PerkinElmer) was added to vials containing dried phosphocellulose papers, and the level of ^32P-transfer to the SAMS peptide was determined using a Tri-Carb 2900TR liquid scintillation counter (PerkinElmer).

T1 sequence (Q13131 whole entry, the tested form may be a part): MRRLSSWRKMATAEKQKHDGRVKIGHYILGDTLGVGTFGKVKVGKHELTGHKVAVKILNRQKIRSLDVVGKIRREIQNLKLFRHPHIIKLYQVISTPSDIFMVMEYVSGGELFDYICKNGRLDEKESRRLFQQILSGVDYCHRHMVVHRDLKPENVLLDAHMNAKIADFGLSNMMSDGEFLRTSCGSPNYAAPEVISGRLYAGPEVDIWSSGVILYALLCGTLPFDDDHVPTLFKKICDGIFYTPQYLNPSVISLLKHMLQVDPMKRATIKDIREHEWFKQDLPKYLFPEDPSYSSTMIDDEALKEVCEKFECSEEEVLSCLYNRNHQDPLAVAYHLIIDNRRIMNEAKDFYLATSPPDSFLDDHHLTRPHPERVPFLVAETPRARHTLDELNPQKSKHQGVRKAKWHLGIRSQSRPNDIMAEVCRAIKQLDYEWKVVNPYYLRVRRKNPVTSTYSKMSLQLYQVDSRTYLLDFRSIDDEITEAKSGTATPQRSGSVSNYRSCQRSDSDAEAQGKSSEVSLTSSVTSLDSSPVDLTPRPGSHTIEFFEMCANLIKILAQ
T1 sequence (O43741 whole entry, the tested form may be a part): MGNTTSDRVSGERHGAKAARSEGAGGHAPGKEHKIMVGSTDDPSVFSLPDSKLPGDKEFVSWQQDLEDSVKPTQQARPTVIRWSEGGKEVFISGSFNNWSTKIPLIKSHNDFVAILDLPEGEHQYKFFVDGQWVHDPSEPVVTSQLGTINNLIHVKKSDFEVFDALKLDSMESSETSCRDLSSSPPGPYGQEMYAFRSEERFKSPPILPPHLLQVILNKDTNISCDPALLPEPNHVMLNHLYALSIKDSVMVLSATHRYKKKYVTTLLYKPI
T1 sequence (P54619 whole entry partner, the tested form may be a part): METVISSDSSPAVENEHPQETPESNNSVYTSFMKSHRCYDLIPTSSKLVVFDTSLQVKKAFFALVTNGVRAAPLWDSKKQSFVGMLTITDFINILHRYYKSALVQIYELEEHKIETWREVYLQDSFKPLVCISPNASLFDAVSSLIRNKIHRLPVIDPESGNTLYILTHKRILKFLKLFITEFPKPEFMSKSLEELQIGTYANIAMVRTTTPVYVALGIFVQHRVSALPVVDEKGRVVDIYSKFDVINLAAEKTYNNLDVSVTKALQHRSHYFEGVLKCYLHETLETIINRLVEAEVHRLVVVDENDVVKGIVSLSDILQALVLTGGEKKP
T4 sequence (Q13131 whole entry, the tested form may be a part): as the sequence (Q13131 whole entry, the tested form may be a part) above
T4 sequence (Q9Y478 whole entry, the tested form may be a part): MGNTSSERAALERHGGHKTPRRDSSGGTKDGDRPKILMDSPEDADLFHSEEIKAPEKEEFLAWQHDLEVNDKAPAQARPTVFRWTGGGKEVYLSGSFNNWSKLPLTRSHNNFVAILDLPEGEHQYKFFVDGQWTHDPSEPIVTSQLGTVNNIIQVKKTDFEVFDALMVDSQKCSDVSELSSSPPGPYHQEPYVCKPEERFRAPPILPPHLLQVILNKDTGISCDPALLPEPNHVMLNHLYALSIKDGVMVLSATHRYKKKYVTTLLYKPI
T4 sequence (P54619 whole entry partner, the tested form may be a part): as the sequence (P54619 whole entry partner, the tested form may be a part) above
T2 sequence (P54646 whole entry, the tested form may be a part): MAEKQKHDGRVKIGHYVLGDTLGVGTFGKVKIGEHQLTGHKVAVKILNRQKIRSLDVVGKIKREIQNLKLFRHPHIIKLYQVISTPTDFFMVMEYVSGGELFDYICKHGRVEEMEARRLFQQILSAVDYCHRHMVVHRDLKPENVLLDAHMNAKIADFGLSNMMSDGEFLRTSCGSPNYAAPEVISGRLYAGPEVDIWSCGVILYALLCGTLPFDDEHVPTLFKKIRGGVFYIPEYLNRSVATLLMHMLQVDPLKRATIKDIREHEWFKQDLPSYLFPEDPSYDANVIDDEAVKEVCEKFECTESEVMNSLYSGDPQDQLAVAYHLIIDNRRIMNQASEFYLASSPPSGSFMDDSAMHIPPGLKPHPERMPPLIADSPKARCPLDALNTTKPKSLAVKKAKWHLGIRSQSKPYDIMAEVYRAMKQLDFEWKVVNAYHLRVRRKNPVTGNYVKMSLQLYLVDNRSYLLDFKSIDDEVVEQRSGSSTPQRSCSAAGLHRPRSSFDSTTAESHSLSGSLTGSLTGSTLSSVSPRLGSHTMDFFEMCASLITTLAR
T2 sequence (Q9Y478 whole entry, the tested form may be a part): as the sequence (Q9Y478 whole entry, the tested form may be a part) above
T2 sequence (P54619 whole entry partner, the tested form may be a part): as the sequence (P54619 whole entry partner, the tested form may be a part) above
T3 sequence (P54646 whole entry, the tested form may be a part): as the sequence (P54646 whole entry, the tested form may be a part) above
T3 sequence (O43741 whole entry, the tested form may be a part): as the sequence (O43741 whole entry, the tested form may be a part) above
T3 sequence (P54619 whole entry partner, the tested form may be a part): as the sequence (P54619 whole entry partner, the tested form may be a part) above

What is called EC50 is the concentration giving half of the maximal effect. With `CN(C)C(=O)C1(O)CCC(Oc2nc3nc(-c4ccc(C5=CCC(C(=O)O)CC5)cc4)c(Cl)cc3[nH]2)CC1` (stereo not drawn) [MSG012, 4′-(6-Chloro-2-(((1s,4s)-4-(dimethylcarbamoyl)-4-hydroxycyclohexyl)oxy)-1H-imidazo[4,5-b]pyridin-5-yl)-2,3,4,5-tetrahydro-[1,1′-biphenyl]-4-carboxylic acid], the “greater potency for α2β2γ1 compared with α1β1γ1” value with α2β2γ1 AMPK was around 100 fold. Also, the Max. fold activation at human GST-AMPK α1β2γ1 (immobilised α1β2γ1) turned out to be 1.9 fold; on human GST-AMPK α2β1γ1 (immobilised α2β1γ1), 6.1 fold; at human GST-AMPK α2β2γ1 (immobilised α2β2γ1), 2.9 fold; at human GST-AMPK α1β1γ1 (immobilised α1β1γ1), 1.9 fold. For the same compound, the EC50 worked out at 232 nM at human GST-AMPK α1β2γ1 (immobilised α1β2γ1, 0–30 µM activator); 332 nM on human GST-AMPK α2β1γ1 (immobilised α2β1γ1, 0–30 µM activator); 328 nM on human GST-AMPK α2β2γ1 (immobilised α2β2γ1, 0–30 µM activator); 103 nM at human GST-AMPK α1β1γ1 (immobilised α1β1γ1, 0–30 µM activator).
